According to patent publication US10046060B2, “Co-administration of an agent linked to an internalization peptide with an anti-inflammatory” (NoNO Inc., priority 2007, dated 2018):
Ends that are not written are not given here.

Tested on: humans
Test: Safety, Tolerability and Pharmacokinetic Study in humans: blood histamine
Assay type: in vivo, human
Procedure: We carried out a Safety, Tolerability and Pharmacokinetic Study of Tat-NR2B9c in humans. Subjects were either normal, healthy, non-smoking males or post-menopausal or surgically sterile female subjects with a minimum age of 18 years. The subjects were either administered Tat-NR2B9c, Lot #: 124-134-001B, or were given placebo (Phosphate Buffered Saline), Lot #: 124-134-001A, administered as an intravenous infusion (10±1 minutes). Four subjects were dosed in each of Cohorts 1 to 3, and 10 subjects were dosed in each of Cohorts 4 to 8. All 62 subjects completed the study. Treatment periods for each cohort were as follows: Cohort 1: Sep. 14, 2006; Cohort 2: Sep. 26, 2006; Cohort 3: Oct. 6, 2006; Cohort 4: Oct. 20, 2006; Cohort 5: Nov. 6, 2006; Cohort 6: Dec. 4, 2006; Cohort 7: Dec. 17, 2006; Cohort 8: Feb. 25, 2007.
During the study period, 11 blood samples were collected for pharmacokinetic analysis from each subject at the following timepoints: 0.00 (pre-dose), 0.08 (5 minutes), 0.17 to 0.25 (10 to 15 minutes, precisely at the end of each individual drug infusion), 0.33 (20 minutes), 0.50, 0.75, 1.00, 2.00, 6.00, 12.00, and 24.00 hours post-dose. In addition, 8 blood samples were collected for histamine analysis from each subject at the following timepoints: 0.00 (pre-dose), and at 0.08 (5 minutes), 0.17 (10 minutes), 0.25, 0.50, 1.00, 2.00, and 24.00 hours post-dose.

YGRKKRRQRRRKLSSIESDV [Tat-NR2B9c]
Number of Subjects with Histamine levels >10 nmol/L (NA-1 0.75 mg/kg (n = 8), Day 1, 0.00 hr): 0
Number of Subjects with Histamine levels >10 nmol/L (NA-1 0.75 mg/kg (n = 8), Day 1, 0.08 hr): 0
Number of Subjects with Histamine levels >10 nmol/L (NA-1 0.75 mg/kg (n = 8), Day 1, 0.17 hr): 0
Number of Subjects with Histamine levels >10 nmol/L (NA-1 0.75 mg/kg (n = 8), Day 1, 0.25 hr): 0
Number of Subjects with Histamine levels >10 nmol/L (NA-1 0.75 mg/kg (n = 8), Day 1, 0.50 hr): 0
Number of Subjects with Histamine levels >10 nmol/L (NA-1 0.75 mg/kg (n = 8), Day 1, 1.00 hr): 0
Number of Subjects with Histamine levels >10 nmol/L (NA-1 0.75 mg/kg (n = 8), Day 1, 2.00 hr): 0
Number of Subjects with Histamine levels >10 nmol/L (NA-1 0.75 mg/kg (n = 8), Day 1, 24.00 hr): 0
Number of Subjects with Histamine levels >10 nmol/L (NA-1 0.75 mg/kg (n = 8), Day 7): 0
Number of Subjects with Histamine levels >10 nmol/L (NA-1 0.75 mg/kg (n = 8), Day 14): 0
Number of Subjects with Histamine levels >10 nmol/L (NA-1 0.75 mg/kg (n = 8), Day 28 End-of-study): 0
Number of Subjects with Histamine levels >10 nmol/L (NA-1 0.75 mg/kg (n = 8), Screening): 0
Number of Subjects with Histamine levels >10 nmol/L (NA-1 1.50 mg/kg (n = 8), Day 1, 0.00 hr): 0
Number of Subjects with Histamine levels >10 nmol/L (NA-1 1.50 mg/kg (n = 8), Day 1, 0.08 hr): 0
Number of Subjects with Histamine levels >10 nmol/L (NA-1 1.50 mg/kg (n = 8), Day 1, 0.17 hr): 0
Number of Subjects with Histamine levels >10 nmol/L (NA-1 1.50 mg/kg (n = 8), Day 1, 0.25 hr): 0
Number of Subjects with Histamine levels >10 nmol/L (NA-1 1.50 mg/kg (n = 8), Day 1, 0.50 hr): 0
Number of Subjects with Histamine levels >10 nmol/L (NA-1 1.50 mg/kg (n = 8), Day 1, 1.00 hr): 0
Number of Subjects with Histamine levels >10 nmol/L (NA-1 1.50 mg/kg (n = 8), Day 1, 2.00 hr): 0
Number of Subjects with Histamine levels >10 nmol/L (NA-1 1.50 mg/kg (n = 8), Day 1, 24.00 hr): 0
Number of Subjects with Histamine levels >10 nmol/L (NA-1 1.50 mg/kg (n = 8), Day 7): 0
Number of Subjects with Histamine levels >10 nmol/L (NA-1 1.50 mg/kg (n = 8), Day 14): 0
Number of Subjects with Histamine levels >10 nmol/L (NA-1 1.50 mg/kg (n = 8), Day 28 End-of-study): 0
Number of Subjects with Histamine levels >10 nmol/L (NA-1 1.50 mg/kg (n = 8), Screening): 0
Number of Subjects with Histamine levels >10 nmol/L (NA-1 2.60 mg/kg (n = 8), Day 1, 0.00 hr): 0
Number of Subjects with Histamine levels >10 nmol/L (NA-1 2.60 mg/kg (n = 8), Day 1, 0.08 hr): 0
Number of Subjects with Histamine levels >10 nmol/L (NA-1 2.60 mg/kg (n = 8), Day 1, 0.17 hr): 0
Number of Subjects with Histamine levels >10 nmol/L (NA-1 2.60 mg/kg (n = 8), Day 1, 0.25 hr): 0
Number of Subjects with Histamine levels >10 nmol/L (NA-1 2.60 mg/kg (n = 8), Day 1, 0.50 hr): 0
Number of Subjects with Histamine levels >10 nmol/L (NA-1 2.60 mg/kg (n = 8), Day 1, 1.00 hr): 0
Number of Subjects with Histamine levels >10 nmol/L (NA-1 2.60 mg/kg (n = 8), Day 1, 2.00 hr): 0
Number of Subjects with Histamine levels >10 nmol/L (NA-1 2.60 mg/kg (n = 8), Day 1, 24.00 hr): 0
Number of Subjects with Histamine levels >10 nmol/L (NA-1 2.60 mg/kg (n = 8), Day 7): 0
Number of Subjects with Histamine levels >10 nmol/L (NA-1 2.60 mg/kg (n = 8), Day 14): 0
Number of Subjects with Histamine levels >10 nmol/L (NA-1 2.60 mg/kg (n = 8), Day 28 End-of-study): 0
Number of Subjects with Histamine levels >10 nmol/L (NA-1 2.60 mg/kg (n = 8), Screening): 0
Number of Subjects with Histamine levels >10 nmol/L (NA-1 3.75 mg/kg (n = 8), Day 1, 0.00 hr): 0
Number of Subjects with Histamine levels >10 nmol/L (NA-1 3.75 mg/kg (n = 8), Day 1, 0.08 hr): 0
Number of Subjects with Histamine levels >10 nmol/L (NA-1 3.75 mg/kg (n = 8), Day 1, 0.17 hr (10 minutes)): 7 of the 8
Number of Subjects with Histamine levels >10 nmol/L (NA-1 3.75 mg/kg (n = 8), Day 1, 0.17 hr (10 minutes), listed as NA 1, 3.75 mg/kg): Seven of 8
Number of Subjects with Histamine levels >10 nmol/L (NA-1 3.75 mg/kg (n = 8), Day 1, 0.17 hr (10 minutes), listed as NA-1, 3.75 mg/kg): 7
Number of Subjects with Histamine levels >10 nmol/L (NA-1 3.75 mg/kg (n = 8), Day 1, 0.25 hr (15 minutes)): 3
Number of Subjects with Histamine levels >10 nmol/L (NA-1 3.75 mg/kg (n = 8), Day 1, 0.50 hr): 0
Number of Subjects with Histamine levels >10 nmol/L (NA-1 3.75 mg/kg (n = 8), Day 1, 1.00 hr): 0
Number of Subjects with Histamine levels >10 nmol/L (NA-1 3.75 mg/kg (n = 8), Day 1, 2.00 hr): 0
Number of Subjects with Histamine levels >10 nmol/L (NA-1 3.75 mg/kg (n = 8), Day 1, 24.00 hr): 0
Number of Subjects with Histamine levels >10 nmol/L (NA-1 3.75 mg/kg (n = 8), Day 7): 0
Number of Subjects with Histamine levels >10 nmol/L (NA-1 3.75 mg/kg (n = 8), Day 14): 0
Number of Subjects with Histamine levels >10 nmol/L (NA-1 3.75 mg/kg (n = 8), Day 28 End-of-study): 0
Number of Subjects with Histamine levels >10 nmol/L (NA-1 3.75 mg/kg (n = 8), Screening): 0
Time for abnormal histamine results to return to the normal range (after drug administration): ≤ 24.00 h
Abnormal histamine levels in other dose groups (dose groups other than 3.75 mg/kg): no treatment group had significant abnormal levels of histamine
